Test results as given in patent publication US12391737B2, “Soluble NPY2 receptor agonists” (Boehringer Ingelheim International GmbH, priority 2020, dated 2025).

Key:
[1] = biological target: T1, Human Neuropeptide Y2 Receptor (Homo sapiens, UniProt P49146); experiment: Radioligand binding competition assay (RLB); conditions: Table 3, 125I-PYY(1-36) competition; read-out: Ki
T1 construct: purchased CHEMICON HTS066M
T1 sequence (P49146 1-381): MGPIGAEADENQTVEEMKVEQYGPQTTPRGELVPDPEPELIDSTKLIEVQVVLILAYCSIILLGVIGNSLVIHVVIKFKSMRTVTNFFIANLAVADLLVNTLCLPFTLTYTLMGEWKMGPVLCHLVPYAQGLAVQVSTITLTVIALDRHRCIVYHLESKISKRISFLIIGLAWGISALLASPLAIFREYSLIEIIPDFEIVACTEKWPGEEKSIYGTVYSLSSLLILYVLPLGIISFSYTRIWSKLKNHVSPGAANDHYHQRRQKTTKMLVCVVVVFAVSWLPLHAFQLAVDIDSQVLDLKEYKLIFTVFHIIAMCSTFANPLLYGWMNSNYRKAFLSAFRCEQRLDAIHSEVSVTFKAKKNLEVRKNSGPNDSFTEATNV
In short: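 IC50 values come from sigmoidal dose-response fits of scintillation counts after peptides competed for radioligand binding at receptor membranes (0.5 μg protein/well). Incubation ran 2 h at room temperature in HEPES buffer, pH 7.4, with Mg2+, Ca2+ and 0.2% ovalbumin.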

Solubility determination = experiment: Solubility determination
In short: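 First, TFA-salt peptide was added to 0.1 M sodium diphosphate (pH 6.4 or 7.0) to 10 mg/ml and shaken 2 h at room temperature. Next, insoluble material was filtered off. Finally, filtrate and control, each 1 mg/ml in 50% acetonitrile, were compared by reversed-phase chromatography.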

| Structure (SMILES) | Ki [1] | Sol6 (Solubility determination; solubility in the pH 6 condition, measured pH printed in the next column (6.0-6.3)) | Sol7 (Solubility determination; solubility in the pH 7 condition, measured pH printed in the next column (6.6-6.9)) | Sol6 (Solubility determination; pH 6) | Sol7 (Solubility determination; pH 7) |
| --- | --- | --- | --- | --- | --- |
| CC(C)CC(=O)N[C@@H](C)C(=O)N1CCC[C@H]1C(=O)N[C@@H](CCC(=O)O)C(=O)N[C@@H](CCCCNC(=O)CCCCCNC(=O)CC[C@H](NC(=O)CCCCCCCCCCCCCCCCC(=O)O)C(=O)O)C(=O)N1CCC[C@H]1C(=O)N[C@@H](CCC(=O)O)C(=O)N[C@@H](CCC(=O)O)C(=O)N[C@@H](CC(=O)O)C(=O)N[C@@H](C)C(=O)N[C@H](C(=O)N1CCC[C@H]1C(=O)N[C@@H](CCC(=O)O)C(=O)N[C@@H](CCC(=O)O)C(=O)N[C@@H](CC(C)C)C(=O)N[C@@H](CCC(N)=O)C(=O)N[C@@H](CCCNC(=N)N)C(=O)N[C@@H](Cc1ccc(O)cc1)C(=O)N[C@@H](Cc1ccc(O)cc1)C(=O)N[C@H](C(=O)N[C@@H](CO)C(=O)N[C@@H](CC(C)C)C(=O)N[C@@H](CCCNC(=N)N)C(=O)N[C@@H](Cc1c[nH]cn1)C(=O)N[C@@H](Cc1ccc(O)cc1)C(=O)N[C@@H](Cc1ccc(O)cc1)C(=O)N[C@@H](CC(N)=O)C(=O)N[C@@H](Cc1c[nH]c2ccccc12)C(=O)N[C@@H](CC(C)C)C(=O)N[C@H](C(=O)N[C@@H](CCCCN)C(=O)N[C@@H](CCC(N)=O)C(=O)N[C@@H](CCCNC(=N)N)C(=O)N[C@@H](Cc1ccc(O)cc1)C(N)=O)[C@@H](C)O)C(C)C)[C@@H](C)O [Compound 180, N{alpha-4}-(3-methylbutanoyl)-N{epsilon-7}-(6-[(4S)-4-carboxy-4-(17-carboxyheptadecanamido)butanamido]hexanoyl)-[4A,7K,9E,13T,18Q,22V,28Y,30W,31L,33K]-hPYY(4-36)] | 15.1 nM | 9.9 mg/mL | 10.0 mg/mL | – | – |
| CC[C@H](C)[C@H](NC(=O)[C@H](CCC(=O)O)NC(=O)[C@H](CCC(=O)O)NC(=O)[C@@H]1CCCN1C(=O)[C@H](CCC(=O)O)NC(=O)[C@H](C)NC(=O)[C@H](CC(=O)O)NC(=O)[C@H](C)NC(=O)[C@H](CCC(=O)O)NC(=O)[C@@H]1CCCN1C(=O)[C@H](CCCCNC(=O)CCCCCNC(=O)CC[C@H](NC(=O)CCCCCCCCCCCCCCCCC(=O)O)C(=O)O)NC(=O)[C@H](C)NC(=O)[C@@H]1CCCN1C(=O)[C@H](C)NC(=O)CC(C)C)C(=O)N[C@@H](CCC(N)=O)C(=O)N[C@@H](CCCNC(=N)N)C(=O)N[C@@H](Cc1ccc(O)cc1)C(=O)N[C@@H](Cc1ccc(O)cc1)C(=O)N[C@H](C(=O)N[C@@H](C)C(=O)N[C@@H](CC(C)C)C(=O)N[C@@H](CCCNC(=N)N)C(=O)N[C@@H](Cc1c[nH]cn1)C(=O)N[C@@H](Cc1ccc(O)cc1)C(=O)N[C@@H](Cc1ccc(O)cc1)C(=O)N[C@@H](CC(N)=O)C(=O)N[C@@H](Cc1c[nH]c2ccccc12)C(=O)N[C@@H](CC(C)C)C(=O)N[C@H](C(=O)N[C@@H](CCCNC(=N)N)C(=O)N[C@@H](CCC(N)=O)C(=O)N[C@@H](CCCNC(=N)N)C(=O)N[C@@H](Cc1ccc(O)cc1)C(N)=O)[C@@H](C)O)C(C)C [Compound 181, N{alpha-4}-(3-methylbutanoyl)-N{epsilon-7}-(6-[(4S)-4-carboxy-4-(17-carboxyheptadecanamido)butanamido]hexanoyl)-[4A,6A,7K,9E,10A,13E,17I,18Q,22V,23A,28Y,30W,31L]-hPYY(4-36)] | 1.33 nM | – | – | 9.5 mg/mL | 9.3 mg/mL |
| CC(C)CC(=O)N[C@@H](C)C(=O)N1CCC[C@H]1C(=O)N[C@@H](C)C(=O)N[C@@H](CCCCNC(=O)CCCCCNC(=O)CC[C@H](NC(=O)CCCCCCCCCCCCCCCCC(=O)O)C(=O)O)C(=O)N1CCC[C@H]1C(=O)N[C@@H](CCC(=O)O)C(=O)N[C@@H](CCC(=O)O)C(=O)N[C@@H](CC(=O)O)C(=O)N[C@@H](C)C(=O)N[C@@H](CO)C(=O)N[C@@H](CCC(=O)O)C(=O)N[C@@H](CCC(=O)O)C(=O)N[C@@H](CCC(=O)O)C(=O)N[C@@H](CC(C)C)C(=O)N[C@@H](CCC(N)=O)C(=O)N[C@@H](CCCNC(=N)N)C(=O)N[C@@H](Cc1ccc(O)cc1)C(=O)N[C@@H](Cc1ccc(O)cc1)C(=O)N[C@H](C(=O)N[C@@H](CO)C(=O)N[C@@H](CC(C)C)C(=O)N[C@@H](CCCNC(=N)N)C(=O)N[C@@H](Cc1c[nH]cn1)C(=O)N[C@@H](Cc1ccc(O)cc1)C(=O)N[C@@H](Cc1ccc(O)cc1)C(=O)N[C@@H](CC(N)=O)C(=O)N[C@@H](Cc1c[nH]c2ccccc12)C(=O)N[C@@H](CC(C)C)C(=O)N[C@H](C(=O)N[C@@H](CCCNC(=N)N)C(=O)N[C@@H](CCC(N)=O)C(=O)N[C@@H](CCCNC(=N)N)C(=O)N[C@@H](Cc1ccc(O)cc1)C(N)=O)[C@@H](C)O)C(C)C [Compound 185, N{alpha-4}-(3-methylbutanoyl)-N{epsilon-7}-(6-[(4S)-4-carboxy-4-(17-carboxyheptadecanamido)butanamido]hexanoyl)-[4A,6A,7K,9E,14E,18Q,22V,28Y,30W,31L]-hPYY(4-36)] | 2.06 nM | – | – | 8.7 mg/mL | 8.9 mg/mL |
| CC(C)CC(=O)N[C@@H](C)C(=O)N1CCC[C@H]1C(=O)N[C@@H](CCC(=O)O)C(=O)N[C@@H](CCCCNC(=O)CCCCCNC(=O)CC[C@H](NC(=O)CCCCCCCCCCCCCCCCC(=O)O)C(=O)O)C(=O)N1CCC[C@H]1C(=O)N[C@@H](CCC(=O)O)C(=O)N[C@@H](CCC(=O)O)C(=O)N[C@@H](CC(=O)O)C(=O)N[C@@H](C)C(=O)N[C@H](C(=O)N1CCC[C@H]1C(=O)N[C@@H](CCC(=O)O)C(=O)N[C@@H](CCC(=O)O)C(=O)N1CCC[C@H]1C(=O)N[C@@H](CCC(N)=O)C(=O)N[C@@H](CCCNC(=N)N)C(=O)N[C@@H](Cc1ccc(O)cc1)C(=O)N[C@@H](Cc1ccc(O)cc1)C(=O)N[C@H](C(=O)N[C@@H](CO)C(=O)N[C@@H](CC(C)C)C(=O)N[C@@H](CCCNC(=N)N)C(=O)N[C@@H](Cc1c[nH]cn1)C(=O)N[C@@H](Cc1ccc(O)cc1)C(=O)N[C@@H](Cc1ccc(O)cc1)C(=O)N[C@@H](CC(N)=O)C(=O)N[C@@H](Cc1c[nH]c2ccccc12)C(=O)N[C@@H](CC(C)C)C(=O)N[C@H](C(=O)N[C@@H](CCCNC(=N)N)C(=O)N[C@@H](CCC(N)=O)C(=O)N[C@@H](CCCNC(=N)N)C(=O)N[C@@H](Cc1ccc(O)cc1)C(N)=O)[C@@H](C)O)C(C)C)[C@@H](C)O [Compound 187, N{alpha-4}-(3-methylbutanoyl)-N{epsilon-7}-(6-[(4S)-4-carboxy-4-(17-carboxyheptadecanamido)butanamido]hexanoyl)-[4A,7K,9E,13T,17P,18Q,22V,28Y,30W,31L]-hPYY(4-36)] | 15.3 nM | – | – | 7.8 mg/mL | >10.0 mg/mL |
| CC(C)CC(=O)N[C@@H](C)C(=O)N1CCC[C@H]1C(=O)N[C@@H](CCC(=O)O)C(=O)N[C@@H](CCCCNC(=O)CCCCCNC(=O)CC[C@H](NC(=O)CCCCCCCCCCCCCCCCC(=O)O)C(=O)O)C(=O)N1CCC[C@H]1C(=O)N[C@@H](CCC(=O)O)C(=O)N[C@@H](CCC(=O)O)C(=O)N[C@@H](CC(=O)O)C(=O)N[C@@H](C)C(=O)N[C@H](C(=O)N1CCC[C@H]1C(=O)N[C@@H](CCC(=O)O)C(=O)N[C@@H](CCC(=O)O)C(=O)N[C@@H](CC(C)C)C(=O)N[C@@H](CCC(N)=O)C(=O)N[C@@H](CCCNC(=N)N)C(=O)N[C@@H](Cc1ccc(O)cc1)C(=O)N[C@@H](Cc1ccc(O)cc1)C(=O)N[C@H](C(=O)N[C@@H](CO)C(=O)N[C@@H](CC(C)C)C(=O)N[C@@H](CCCNC(=N)N)C(=O)N[C@@H](Cc1c[nH]cn1)C(=O)N[C@@H](Cc1ccc(O)cc1)C(=O)N[C@@H](Cc1ccc(O)cc1)C(=O)N[C@@H](CC(N)=O)C(=O)N[C@@H](Cc1c[nH]c2ccccc12)C(=O)N[C@@H](CC(C)C)C(=O)N[C@@H](CCC(N)=O)C(=O)N[C@@H](CCCNC(=N)N)C(=O)N[C@@H](CCC(N)=O)C(=O)N[C@@H](CCCNC(=N)N)C(=O)N[C@@H](Cc1ccc(O)cc1)C(N)=O)C(C)C)[C@@H](C)O [Compound 188, N{alpha-4}-(3-methylbutanoyl)-N{epsilon-7}-(6-[(4S)-4-carboxy-4-(17-carboxyheptadecanamido)butanamido]hexanoyl)-[4A,7K,9E,13T,18Q,22V,28Y,30W,31L,32Q]-hPYY(4-36)] | 5.46 nM | – | – | 9.5 mg/mL | 9.8 mg/mL |
